Assay type in all cases: cell-based
Test [1] deals with human cervical tumor cell line HeLa (ATCC CCL-2). Briefly: SAC-Formation - Paclitaxel-Induced Assay. The following applies: Homo sapiens, HeLa, 24 h, HeLa cells, paclitaxel 0.05 μM, test range 0.005 μM-20 μM, read-out: IC50 [mol/l] SAC-Formation - Paclitaxel-Induced Assay. From the text:
(§1) The spindle assembly checkpoint assures the proper segregation of chromosomes during mitosis. Upon entry into mitosis, chromosomes begin to condensate which is accompanied by the phosphorylation of histone H3 on serine 10. Dephosphorylation of histone H3 on serine 10 begins in anaphase and ends at early telophase. Accordingly, phosphorylation of histone H3 on serine 10 can be utilized as a marker of cells in mitosis. Nocodazole is a microtubule destabilizing substance. Paclitaxel is a microtubule stabilizing compound. Thus, nocodazole as well as paclitaxel interfere with microtubule dynamics and mobilize the spindle assembly checkpoint. […] The mitotic breakthrough can be detected by the decrease of cells with phosphorylation of histone H3 on serine 10. This decline is used as a marker to determine the capability of compounds of the present invention to induce a mitotic breakthrough. The typical morphological alteration of nuclei with a prematurely completed mitosis after SAC-inhibition can be monitored via image analysis routines supporting those findings.
(§2) The nocodazole and paclitaxel variations were used to focus on compounds that are capable of inhibiting a SAC induced by both microtubule destabilization as well as microtubule stabilization. When SAC inducing agents and compounds are given simultaneously inhibitors that effectively block the SAC during formation or abrogation are identified. When cells are incubated with a SAC inducing agent and the SAC interfering compound is given after a defined time, inhibitors are identified that effectively block SAC abrogation.
Cultivated cells of the human cervical tumor cell line HeLa (ATCC CCL-2) were plated at a density of 1000 cells/well in a 1536-well microtiter plate in 2 μl PAA
(§3) Ham's F12 Medium supplemented with 1% (v/v) glutamine, 1% (v/v) penicillin, 1% (v/v) streptomycin and 10% (v/v) fetal calf serum. After incubation overnight at 37° C., 10 μl/well paclitaxel at a final concentration of 0.05 μM were added to cells. Test compounds solubilized in dimethyl sulfoxide (DMSO) were added at various concentrations (0 μM, as well as in the range of 0.005 μM -20 μM; the final concentration of the solvent DMSO was 0.5% (v/v)). Cells were incubated for 24 h at 37° C. in the presence of test compounds in combination with paclitaxel. Thereafter, cells were fixed in 4% (v/v) paraformaldehyde in phosphate buffered saline (PBS) at 4° C. overnight then permeabilized in 0.1% (v/v) Triton X™ 100 in PBS at room temperature for 20 min and blocked in 0.5% (v/v) bovine serum albumin (BSA) in PBS at room temperature for 15 min. After washing with PBS, 5 μl/well antibody solution (anti-phospho-histone H3 clone 3H10, FITC; Millipore, Cat#16-222; 1:1000 dilution) was added to cells, which were incubated for 2 h at room temperature. Afterwards, cells were washed with PBS and 5 μl/well solution of HOECHST 33342 dye (5 μg/ml) was added to cells and cells were incubated 15 min at room temperature in the dark. Cells were washed twice with PBS then covered with PBS and stored at 4° C. until analysis. Images were acquired with a PERKIN ELMER OPERA™ High-Content Analysis reader. Images were analyzed with image analysis software MetaXpress™ from Molecular devices utilizing the Mitotic Index application module. In this assay both labels HOECHST 33342 and phosphorylated Histone H3 on serine 10 were measured. HOECHST 33342 labels the DNA and is used to count the cell number. The staining of phosphorylated Histone H3 on serine 10 determines the number of mitotic cells. […] Otherwise cells were arrested at G2/M phase of the cell cycle progression. The raw assay data were further analyzed by four-parametric hill equation using Genedata's Assay Analyzer and Condoseo software.

For another test, the system named is HeLa. Kind of test: Proliferation assay (crystal violet), HeLa. The settings on record: Homo sapiens, HeLa, 96 h, HeLa cells; 4 days incubation; crystal violet staining; read-out: IC50 inhibition of proliferation, HeLa. As to the method: Cultivated tumor cells (cells were ordered from ATCC, except HeLa-MaTu and HeLa-MaTu-ADR, which were ordered from EPO-GmbH, Berlin) were plated at a density of 1000 to 5000 cells/well, depending on the growth rate of the respective cell line, in a 96-well multititer plate in 200 μL of their respective growth medium supplemented 10% fetal calf serum. After 24 hours, the cells of one plate (zero-point plate) were stained with crystal violet (see below), while the medium of the other plates was replaced by fresh culture medium (200 μl), to which the test substances were added in various concentrations (0 μM, as well as in the range of 0.001-10 μM; the final concentration of the solvent dimethyl sulfoxide was 0.5%). The cells were incubated for 4 days in the presence of test substances. Cell proliferation was determined by staining the cells with crystal violet: the cells were fixed by adding 20 μl/measuring point of an 11% glutaric aldehyde solution for 15 minutes at room temperature. After three washing cycles of the fixed cells with water, the plates were dried at room temperature. The cells were stained by adding 100 μl/measuring point of a 0.1% crystal violet solution (pH 3.0). After three washing cycles of the stained cells with water, the plates were dried at room temperature. The dye was dissolved by adding 100 μl/measuring point of a 10% acetic acid solution. Absorbtion was determined by photometry at a wavelength of 595 nm. The change of cell number, in percent, was calculated by normalization of the measured values to the aborbtion values of the zero-point plate (=0%) and the absorbtion of the untreated (0 μm) cells (=100%). The IC50 values were determined by means of a 4 parameter fit.

In test [2] the test system is human cervical tumor cell line HeLa (ATCC CCL-2). Kind of test: SAC-Formation - Nocodazole-Induced Assay. The following applies: Homo sapiens, HeLa, 24 h, HeLa cells, nocodazole 0.1 μg/ml together with test compound, decrease of mitotic cells (phospho-histone H3 Ser10).
Description: as §1, §2
as §3, with “Cultivated cells of the human cervical tumor cell line HeLa (ATCC CCL-2) were plated at a density of 1000 cells/well in a 1536-well microtiter plate in 2 μl PAA Ham's” for “Ham's”, “nocodazole” for “paclitaxel”, “0.1 μg/ml” for “0.05 μM”, “μM-20” for “μM -20”, “nocodazole.” for “paclitaxel.”

Each structure is given as a SMILES string.

On to `Cc1nsc(Nc2cnc3ccccc3n2)c1C(=O)Nc1cccc(C(=O)N(C)CCN(C)C)c1` [Example 58, N-(3-{[2-(Dimethylamino)ethyl](methyl)carbamoyl}phenyl)-3-methyl-5-(quinoxalin-2-ylamino)-1,2-thiazole-4-carboxamide], for which the results for the IC50 (in test [1]; in the test with HeLa; in test [2]) were 7300 nM, 10000 nM and 3000 nM, respectively.
In the same order, the values of `Cc1nsc(Nc2cnc3ccccc3n2)c1C(=O)Nc1cccc(C(=O)N(C)CCO)c1` [Example 59, N-{3-[(2-hydroxyethyl)(methyl)carbamoyl]phenyl}-3-methyl-5-(quinoxalin-2-ylamino)-1,2-thiazole-4-carboxamide] are 20000 nM, 10000 nM and 3400 nM.
Take `Cc1nsc(Nc2cnc3ccccc3n2)c1C(=O)Nc1cccc(C(=O)NCCCN2CCCC2=O)c1` [Example 60, 3-Methyl-N-(3-{[3-(2-oxopyrrolidin-1-yl)propyl]carbamoyl}phenyl)-5-(quinoxalin-2-ylamino)-1,2-thiazole-4-carboxamide]: the figures for the IC50 (in test [1]; in the test with HeLa; in test [2]) were 240 nM, 10000 nM and 310 nM, respectively.
Take `Cc1nsc(Nc2cnc3ccccc3n2)c1C(=O)Nc1cccc(C(=O)N2CCC(N3CCCCC3)CC2)c1` [Example 61, N-[3-(1,4′-Bipiperidin-1′-ylcarbonyl)phenyl]-3-methyl-5-(quinoxalin-2-ylamino)-1,2-thiazole-4-carboxamide]: the IC50 worked out at 280 nM in test [1], 10000 nM in the test on HeLa and 31 nM in test [2].
For `C#CCN(C)C(=O)c1cccc(NC(=O)c2c(C)nsc2Nc2cnc3ccccc3n2)c1` [Example 62, 3-Methyl-N-{3-[methyl(prop-2-yn-1-yl)carbamoyl]phenyl}-5-(quinoxalin-2-ylamino)-1,2-thiazole-4-carboxamide] the same measures were 1500 nM, 10000 nM and 440 nM.
For `Cc1nsc(Nc2cnc3ccccc3n2)c1C(=O)Nc1cccc(C(=O)Nc2ccc3c(c2)OCO3)c1` [Example 63, N-[3-(1,3-Benzodioxol-5-ylcarbamoyl)phenyl]-3-methyl-5-(quinoxalin-2-ylamino)-1,2-thiazole-4-carboxamide] the same measures were 440 nM, 3600 nM and 190 nM.
`Cc1nsc(Nc2cnc3ccccc3n2)c1C(=O)Nc1cccc(C(=O)NCC(F)(F)F)c1` [Example 64, 3-Methyl-5-(quinoxalin-2-ylamino)-N-{3-[(2,2,2-trifluoro-ethyl)carbamoyl]phenyl}-1,2-thiazole-4-carboxamide]: the IC50 in test [1] was found to be 1300 nM; in the test on HeLa, 2700 nM; in test [2], 320 nM.
For `Cc1nsc(Nc2cnc3ccccc3n2)c1C(=O)Nc1cccc(C(=O)Nc2ccc(N3CCOCC3)cc2)c1` [Example 65, 3-Methyl-N-(3-{[4-(morpholin-4-yl)phenyl]carbamoyl}phenyl)-5-(quinoxalin-2-ylamino)-1,2-thiazole-4-carboxamide] the same measures were 7400 nM, 8200 nM and 410 nM.
In the same order, the values of `CC(=O)NCCNC(=O)c1cccc(NC(=O)c2c(C)nsc2Nc2cnc3ccccc3n2)c1` [Example 66, N-(3-{[2-(Acetylamino)ethyl]carbamoyl}phenyl)-3-methyl-5-(quinoxalin-2-ylamino)-1,2-thiazole-4-carboxamide] are 20000 nM, 10000 nM and 720 nM.
With `CCN(C)C(=O)c1cccc(NC(=O)c2c(C)nsc2Nc2cnc3ccccc3n2)c1` [Example 67, N-{3-[Ethyl(methyl)carbamoyl]phenyl}-3-methyl-5-(quinoxalin-2-ylamino)-1,2-thiazole-4-carboxamide], the IC50 amounted to 670 nM in test [1], 10000 nM in the test on HeLa and 16 nM in test [2].
For `Cc1nsc(Nc2cnc3ccccc3n2)c1C(=O)Nc1cccc(C(=O)N(C)CCCN(C)C)c1` [Example 68, N-(3-{[3-(Dimethylamino)propyl](methyl)carbamoyl}-phenyl)-3-methyl-5-(quinoxalin-2-ylamino)-1,2-thiazole-4-carboxamide] the same measures were 1100 nM, 10000 nM and 110 nM.
For `COc1cc(CNC(=O)c2cccc(NC(=O)c3c(C)nsc3Nc3cnc4ccccc4n3)c2)cc(OC)c1OC` [Example 69, 3-Methyl-5-(quinoxalin-2-ylamino)-N-{3-[(3,4,5-trimethoxy-benzyl)carbamoyl]phenyl}-1,2-thiazole-4-carboxamide] the same measures were 2600 nM, 4000 nM and 870 nM.

The values above are taken from US20170334899A1, “AMINO-SUBSTITUTED ISOTHIAZOLES” (Bayer Pharma Aktiengesellschaft, priority 2014, published 2017).
